Measured values published in patent publication US11845782B2, “Relaxin fusion polypeptides and uses thereof” (MedImmune Limited, priority 2017, dated 2023).

Columns and labels:
[1] = intravenous administration, cited from earlier work
[2] = system: VEGF expression in THP-1 cells; assay: VEGF mRNA induction in THP-1 cells, quantitative real-time PCR (Example 4); format: cell-based, human; conditions: 0.01, 0.06, and 10 ng/ml; 2.5 h
Procedure: The ability of the Relaxin 2 fusion polypeptides to induce the expression of VEGF, a known downstream target of Relaxin 2 (Xiao et al., 2013), was assayed. The expression of VEGF RNA in THP-1 cells (Catalogue number TIB-202, ATCC) was analyzed by quantitative real-time PCR. A total of […] was seeded in a 24-well flat bottom plate (Catalogue number 353226, Corning) in 400 μl test media (RPMI-1640 without phenol red, 0.5% FBS, 1% Pen/Strep and 0.05 mM of 2-mercaptoethanol). After 24 h incubation at 37° C., 5% CO2, human relaxin-2 (Catalogue number 3956-RN, R&D Systems) or Fc-hRelaxin-2 fusion polypeptides, were added to the cells in the plate for 2.5 h at 37° C. RNA isolation and purification from THP-1 cells was performed using Qiagen's QiaShredder (Catalogue number 79656, Qiagen) and RNA Plus Mini Kit (Catalogue number 74134, Qiagen), following the manufacturer's protocol. The mRNA concentrations were measured by NanoDrop (Thermofisher) and samples were normalized to the same starting concentration (range between RT-PCR set up; 50-20 ng/μl). […] The relative fold change in VEGF mRNA level was calculated by the comparative Ct method using GAPDH expression for normalization. Results were calculated as fold changes over no treatment control. […] Data was analyzed by paired two tailed t-test utilizing Prism GraphPad, V6.

[3] = system: isoproterenol-induced cardiac hypertrophy; assay: Isoproterenol-induced cardiac hypertrophy and fibrosis in mice (Example 8); format: in vivo, C57BL/6J male mice; conditions: given concomitantly with isoproterenol 15 mg/kg/day, 2 weeks
Procedure: A total of 6 study groups with n=8 mice (C57BL/6J male mice) per group were performed. The groups were: vehicle, Fc_hRLX2_15-15AA, isoproterenol, isoproterenol+enalapril, isoproterenol+recombinant human relaxin 2, and isoproterenol+Fc_hRLX2_15-15AA. Drugs and vehicle were delivered by Alzet minipumps (model 1002; rate: 0.25 μl/hr (±0.05), 6 μl one day @37° C.) or subcutaneous injection for Fc_hRLX2_15-15AA.
Isoproterenol was made as follows: A 500 mM solution (123.9 mg/ml) freshly in 0.0002% Na-Asc saline, […] filtered). The final [Iso] concentration in minipump: 15 mg/kg/day=15 mg/247.72/6 μl/1000 g=10.1 mM per gram of body weight (BVV). Vehicle was 0.0002% Na-ascorbate, Sigma catalog #A7631.
Enalapril was made as follows: Enalapril is used as maleate salt, MW of 492.52, Sigma catalog #E6888. A 200 mM stock solution (98.5 mg/ml) freshly in methanol, […] filtered. The final concentration in minipump: 2.5 mg/kg/day=2.5 mg/492.52/6 μl/1000 g=0.846 mM per gram of body weight (BVV), i.e., one minipump for 30 gram of mouse will need 19.0 μl of 200 mM Ena (150 μl×0.846/200 mM×30 g BW).
Isoproterenol+Enalapril: Isoproterenol and enalapril made as described above were included in the pump.
At the end of the study, body weight, heart weight, lung weight, and tibia length were measured. Additionally, histology and collagen assays were performed using the heart samples.
Fibrosis was measured based on the detection of hydroxyproline (Total collagen assay, QuickZyme Biosciences). Histology (H & E and Masson Trichrome) was also carried out on formalin treated heart tissue following 2 weeks of treatments.

[4] = Mouse PK profile, FcRn transgenic mouse, Fc capture and Relaxin detection ELISA (Example 6); format: in vivo; conditions: IV or SC, 6 mg/kg

Molecule | isoproterenol-induced increase in cardiac hypertrophy (HW/TL) [3] | isoproterenol-induced increase in fibrosis (collagen content) [3] | half-life offered by the YTE mutations [4] | also measured
serelaxin |  |  |  | proportion of patients with significant blood pressure drop (>40 mm Hg) [1]: approximately one third; markers of cardiac, renal and hepatic damage and congestion ([1]; patients): improved
rhRLX2: Recombinant human Relaxin-2, R&D Systems (catalogue 6586-RN-025; 3956-RN in VEGF assay), positive control; mature A/B chain array (chain 1 QLYSALANKCCHVGCTKRSLARFC; chain 2 DSWMEEVIKLCGRELVRAQIAICGMSTWS) | significantly attenuated | significantly attenuated |  | VEGF transcripts in THP-1 cells vs no treatment control [2]: significantly increased
CCOC(=O)[C@H](CCc1ccccc1)N[C@@H](C)C(=O)N1CCC[C@H]1C(=O)O [enalapril] | significantly attenuated | significantly attenuated |  | 
Fc-YTE-hRLX2-15-15AA: As Fc_hRLX2_15-15AA with YTE mutations in Fc; SEQ ID NO. 22 (protein, fusion protein) DKTHTCPPCPAPELLGGPSVFLFPPKPKDTLYITREPEVTCVVVDVSHEDPEVKFNWYVDGVEVHNAKTKPREEQYNSTYRVVSVLTVLHQDWLNGKEYKCKVSNKALPAPIEKTISKAKGQPREPQVYTLPPSRDELTKNQVSLTCLVKGFYPSDIAVEWESNGQPENNYKTTPPVLDSDGSFFLYSKLTVDKSRWQQGNVFSCSVMHEALHNHYTQKSLSLSPGKGGGGSGGGGSGGGGSQLYSALANKCCHVGCTKRSLARFCGGGGSGGGGSGGGGSSWMEEVIKLCGRELVRAQIAICGMSTWS |  |  | extended half-life | 
Fc-YTE-FQQ_hRLX2_15-15A: As Fc_hRLX2_15-15AA with YTE and FQQ mutations in Fc; SEQ ID NO. 26 (protein, fusion protein) DKTHTCPPCPAPEFQGGPSVFLFPPKPKDTLYITREPEVTCVVVDVSHEDPEVKFNWYVDGVEVHNAKTKPREEQYNSTYRVVSVLTVLHQDWLNGKEYKCQVSNKALPAPIEKTISKAKGQPREPQVYTLPPSRDELTKNQVSLTCLVKGFYPSDIAVEWESNGQPENNYKTTPPVLDSDGSFFLYSKLTVDKSRWQQGNVFSCSVMHEALHNHYTQKSLSLSPGKGGGGSGGGGSGGGGSQLYSALANKCCHVGCTKRSLARFCGGGGSGGGGSGGGGSSWMEEVIKLCGRELVRAQIAICGMSTWS |  |  | extended half-life | 
Fc-YTE-TM_hRLX2_15-15A: As Fc_hRLX2_15-15AA with YTE and TM mutations in Fc; SEQ ID NO. 24 (protein, fusion protein) DKTHTCPPCPAPEFEGGPSVFLFPPKPKDTLYITREPEVTCVVVDVSHEDPEVKFNWYVDGVEVHNAKTKPREEQYNSTYRVVSVLTVLHQDWLNGKEYKCKVSNKALPASIEKTISKAKGQPREPQVYTLPPSRDELTKNQVSLTCLVKGFYPSDIAVEWESNGQPENNYKTTPPVLDSDGSFFLYSKLTVDKSRWQQGNVFSCSVMHEALHNHYTQKSLSLSPGKGGGGSGGGGSGGGGSQLYSALANKCCHVGCTKRSLARFCGGGGSGGGGSGGGGSSWMEEVIKLCGRELVRAQIAICGMSTWS |  |  | extended half-life | 
